Source: ChEMBL document CHEMBL1126545, “Metabolism and biological activity of 1,25(OH)2D2 and its metabolites in a chronic myelogenous leukemia cell line, rwleu-4” (Bioorg Med Chem Lett, 1993)

Legend:
[1] = system: RWLeu4; experiment: Concentration required to decrease [3H]thymidine incorporation by 50 percent in RWLeu4 CML cell line as compared to untreated cells was determined; type: functional, cell-based; details: Homo sapiens
[2] = system: RWLeu4; experiment: Change in cell surface marker (CD11b) along monocyte-macrophage pathway on RWLeu-4 cells; value represents the percentage of total cells positive for CD11b marker; type: functional, Homo sapiens
[3] = system: RWLeu4; experiment: Change in cell surface marker (CD4) along monocyte-macrophage pathway on RWLeu-4 cells; value represents the percentage of total cells positive for CD4 marker; type: functional, Homo sapiens

| IC50 [1] | Structure (SMILES) | Cells positive [2] | Cells positive [3] |
| --- | --- | --- | --- |
| 11 nM | C=C1/C(=C\C=C2/CCC[C@@]3(C)C2CC[C@@H]3[C@H](C)/C=C/C(C)(O)C(C)(C)O)C[C@@H](O)C[C@@H]1O (stereo partly specified) |  |  |
| 11 nM | C=C1/C(=C\C=C2/CCC[C@]3(C)[C@@H]([C@H](C)CC[C@@H](O)C(C)(C)O)CC[C@@H]23)C[C@@H](O)C[C@@H]1O |  |  |
| > 100 nM | C=C1/C(=C\C=C2/CCC[C@]3(C)[C@@H]([C@H](C)/C=C/C(O)(CO)C(C)(C)O)CC[C@@H]23)C[C@@H](O)C[C@@H]1O (stereo partly specified) |  |  |

Second part, the molecule before the results:

| Structure (SMILES) | IC50 [1] | Cells positive [2] | Cells positive [3] |
| --- | --- | --- | --- |
| C=C1/C(=C\C=C2/CCC[C@]3(C)[C@@H]([C@H](C)/C=C/C(CO)C(C)(C)O)CC[C@@H]23)C[C@@H](O)C[C@@H]1O (stereo partly specified) | 96 nM |  |  |
| C=C1/C(=C\C=C2/CCC[C@]3(C)[C@@H]([C@H](C)/C=C/C(C)C(C)(C)O)CC[C@@H]23)C[C@@H](O)C[C@@H]1O (stereo partly specified) | 13 nM | 88% | 15% |
| C=C1/C(=C\C=C2/CCC[C@@]3(C)C2CC[C@@H]3[C@H](C)/C=C/C(C)(O)C(C)(O)CO)C[C@@H](O)C[C@@H]1O (stereo partly specified) | 11 nM |  |  |
| C=C1/C(=C\C=C2/CCC[C@@]3(C)C2CC[C@@H]3[C@H](C)/C=C/C(C)C(C)(O)CO)C[C@@H](O)C[C@@H]1O (stereo partly specified) | 8 nM | 89% | 21% |
